The values that follow come from patent publication US7022711B2, “2-(4-Pyridyl)amino-6-dialkoxyphenyl-pyrido[2,3-d]pyrimidin-7-ones” (Warner-Lambert Company, priority 2000, dated 2006).

Data set [1] deals with VEGFR-2 and FGFR-1 compared to PDGFR, Lck, and c-Src. Description: Kinase selectivity comparison across the kinase inhibition assays. It is filed as biochemical. Conditions: compared with reference Compounds A and B. The text has this:
The invention compounds have been evaluated in the in vitro biological assays described in U.S. Pat. No. 5,733,914. […] Reference Compound A has a 2,6-dichloro phenyl group at the 6-position. Reference Compound B has a 3,5-dimethoxyphenyl group at the 6-position and a substituted phenylamino at the 2-position. The invention compound of Example 8 has the required 3,5-dimethoxyphenyl at the 6-position and the required (4-pyridyl)amino at the 2-position. The structures are shown in Table 1, along with their respective inhibitory activities against various tyrosine kinases, when evaluated in the models described in U.S. Pat. No. 5,733,914.
The preferred kinase selectivity profile of the compound in Example 8 is shared by the other representative compounds of the invention shown in Table 2. The inhibition activity of the compounds in Examples 8, 9, 10, 11, and 12 and Reference Compounds A and B were evaluated using the Dissociated Enhanced Lanthanide Fluoroimmuno Assay (DELFIA) (Frank Loganzo and Carolyn Hardy. A sensitive, time-resolved fluorometric assay for the detection of inhibitors of phosphotyrosine kinases. American Biotechnology Laboratory, December 1998). […] One hundred microliter DELFIA enhancement solution (EG&G Wallac) was added and time-resolved fluorescence of the reactions determined using a VICTOR2 1420 multilable counter (EG&G Wallac). […]

The next data set concerns the target T1, c-Src (Homo sapiens, UniProt P12931).
T1 construct: purchased Upstate Biotechnology, Lake Placid, N.Y
Description: Kinase inhibition assay (DELFIA), c-Src. It is filed as biochemical. The settings on record: 40 μM ATP, c-Src 3 units per reaction. As to the method: (§1) The inhibition activity of the compounds in Examples 8, 9, 10, 11, and 12 and Reference Compounds A and B were evaluated using the Dissociated Enhanced Lanthanide Fluoroimmuno Assay (DELFIA) (Frank Loganzo and Carolyn Hardy. A sensitive, time-resolved fluorometric assay for the detection of inhibitors of phosphotyrosine kinases. American Biotechnology Laboratory, December 1998). DELFIA plates (EG&G Wallac, Gaithersburg, Md.) were coated overnight with Poly Glu Tyr (4:1) (Sigma, St. Louis, Mo.) at room temperature, washed (DELFIA wash reagent, EG&G Wallac), and spotted with 1 μL inhibitor dilution or DMSO carrier control per well. In some cases, kinase was autophosphorylated prior to analysis by incubating 45 minutes at 4° C. in the presence of 4 mM ATP and 25 mM MgCl2. A typical 100 μL kinase assay reaction contained 20 mM Tris (pH 7.5), 20 mM MgCl2, 50 mM NaCl, 5 mM DTT, and protease inhibitors (Mini EDTA-free protease inhibitor cocktail tablets, Boehringer Mannheim, Indianapolis, Ind.), 40 μM ATP, and an appropriate concentration of inhibitor. The reaction was allowed to continue for 30 minutes at room temperature. Plates were washed, blocked 30 minutes at room temperature (0.5% bovine serum albumin in DELFIA Assay Buffer, EG&G Wallac), and washed. One hundred microliter europium-conjugated antiphosphotyrosine antibody in DELFIA assay buffer was added to each well. Plates were incubated for 1 hour and decanted. One hundred microliter DELFIA enhancement solution (EG&G Wallac) was added and time-resolved fluorescence of the reactions determined using a VICTOR2 1420 multilable counter (EG&G Wallac). Compounds were tested from 10 through 0.0001 μM. c-Src was (Upstate Biotechnology, Lake Placid, N.Y.) was used at 3 units per reaction. The kinase domains from FGFR-1, VEGFR-2, Lck, and PDGF were purified from baculoviral vectors expression systems and were used in the assays at 20 nM.

In a further data set the target is T2, PDGFR (Mus musculus, UniProt P05622).
T2 construct: The kinase domains from FGFR-1, VEGFR-2, Lck, and PDGF were purified from baculoviral vectors expression systems and were used in the assays at 20 nM
T2 sequence (P05622 553-1098): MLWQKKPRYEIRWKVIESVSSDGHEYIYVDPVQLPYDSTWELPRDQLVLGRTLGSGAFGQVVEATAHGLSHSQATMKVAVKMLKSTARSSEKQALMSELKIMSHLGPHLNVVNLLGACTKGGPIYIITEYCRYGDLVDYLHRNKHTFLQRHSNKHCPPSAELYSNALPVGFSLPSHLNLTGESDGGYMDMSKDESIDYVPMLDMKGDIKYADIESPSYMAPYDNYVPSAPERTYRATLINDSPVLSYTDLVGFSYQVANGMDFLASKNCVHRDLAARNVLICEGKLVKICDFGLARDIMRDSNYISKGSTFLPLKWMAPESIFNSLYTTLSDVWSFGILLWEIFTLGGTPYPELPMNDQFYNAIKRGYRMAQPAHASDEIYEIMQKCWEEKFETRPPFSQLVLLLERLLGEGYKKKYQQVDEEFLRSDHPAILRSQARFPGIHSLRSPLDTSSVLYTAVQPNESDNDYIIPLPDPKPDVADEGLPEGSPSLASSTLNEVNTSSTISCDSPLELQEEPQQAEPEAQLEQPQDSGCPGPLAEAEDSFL
Description: Kinase inhibition assay (DELFIA), PDGF. The data set is classed as biochemical. Conditions: 40 μM ATP, kinase domain 20 nM. On the procedure: as §1, with “Plates were washed, blocked 30 minutes at room temperature (0.5% bovine serum albumin in DELFIA Assay Buffer, EG&G Wallac), and washed. One hundred microliter europium-conjugated antiphosphotyrosine antibody in DELFIA assay buffer was added to each well. Plates were incubated for 1 hour and decanted.” left out, “Compounds were tested from 10 through 0.0001 μM. c-Src was (Upstate Biotechnology, Lake Placid, N.Y.) was used at 3 units per reaction. The kinase domains from FGFR-1, VEGFR-2, Lck, and PDGF were purified from baculoviral vectors expression systems and were used in the assays at 20 nM.” left out

Data set [2] relates to Mammary Adenocarcinoma M16/C. Description: Antitumor activity in vivo, M16/C mammary tumor model. Conditions: for CRs, complete regression / T-C (Days), tumor growth delay to 750 mg / T/C (%), median treated tumor mass/median control tumor mass / NSD, nonspecific deaths/total in treatment group: D7-15; for T/C (%), median treated tumor mass/median control tumor mass: 3 days after the end of therapy. As to the method: The anticancer efficacy of the compound of Example 8 was evaluated using a murine mammary […] tumor model, M16/C. This highly vascularized tumor is very aggressive with a doubling time of 1.5 days. Tumor fragments were implanted by trocar fragment in the right axilla of C3H mice on Day 0. The efficacy of treatment was assessed both in an advanced stage model (test compound treatment for nine consecutive days after tumors had reached 100 mg). The compound in Example 8 was dosed once a day over the treatment period by oral gavage in 0.05 M sodium lactate buffer, pH 4. Animals were allowed to continue off therapy until the tumors reached the evaluable size (750 mg). Animal weights were determined throughout the study to provide an estimate of test compound toxicity. A mean weight loss >10% (3–4 g) for any treatment group is an indication of host toxicity. Anticancer activity was evaluated using two methods. The first is %T/C where T=median mass of treated tumors 3 days after the end of therapy, and C=median mass of the control group at that same time point. The highest degree of antitumor activity using this assessment occurs when T=0, and %T/C=0%. […] The second method uses tumor growth delay (T−C), where T=the days for the median treated tumor to reach an evaluable size (750 mg), and C=days for control tumors to reach that same size.

Turning to “6-(3,5-Dimethoxy-phenyl)-8-ethyl-2-(pyridin-4-ylamino)-8H-pyrido[2,3-d]pyrimidin-7-one [Example 8]”, in data set [1], the “selectivity for VEGFR-2 and FGFR-1 compared to PDGFR, Lck, and c-Src” value is recorded as “more selective”. Moreover, the IC50 stood at 36.5 µM against c-Src and 2.54 µM at PDGFR. For the same substance, the “CRs, complete regression” value in data set [2] (5 mg/kg, oral) is on record as 0/6; in data set [2] (20 mg/kg, oral) it was 4/6; in data set [2] (40 mg/kg, oral) it was 6/6. Also, the “T-C (Days), tumor growth delay to 750 mg” value came out at 4.3 days in data set [2] (5 mg/kg, oral); 7.9 days in data set [2] (10 mg/kg, oral); 10.7 days in data set [2] (20 mg/kg, oral); 12.4 days in data set [2] (40 mg/kg, oral). Besides, the “T/C (%), median treated tumor mass/median control tumor mass” value was 39% in data set [2] (5 mg/kg, oral); 15% in data set [2] (10 mg/kg, oral); 0% in data set [2] (20 mg/kg, oral); 0% in data set [2] (40 mg/kg, oral). The “NSD, nonspecific deaths/total in treatment group” value in data set [2] (10 mg/kg, oral) is on record as 0/6; in data set [2] (20 mg/kg, oral) it was 0/6; in data set [2] (40 mg/kg, oral), 0/6. Besides, in data set [2] (40 and 20 mg/kg dose levels), the “regression of tumors below the level of palpation” value is given as “complete regressions”. In addition, the “tumor growth delay (T−C) relative to duration of therapy” value in data set [2] (40 and 20 mg/kg dose levels) is recorded as “greater than the duration of therapy”. Also, the “anticancer activity (%T/C)” value in data set [2] (all four doses tested) is “meaningful anticancer activity”. In addition, in data set [2] (all four doses tested, oral, nine consecutive days), the tolerability result was “well-tolerated”.

The IC50 is the midpoint of a concentration-inhibition curve. The low end stands for higher potency, the high end for lower potency.
